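Interpolation was linear, between the two tested concentrations surrounding the appropriate level; five concentrations were tested over 48 hours in 96-well plates. At the GI50, growth is halved.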 Calls of active or inactive are those of the source. No stated cut-off is given here; in the data, active = GI50 up to about 1.1 µM and inactive = higher.
Key:
Experiment in all cases: NCI anticancer screen, dose series, 48 h
[1] = tested on: CCRF-CEM
[2] = tested on: SF-268
[3] = tested on: M14
[4] = tested on: HOP-62
[5] = tested on: NCI-H226
[6] = tested on: HL-60
[7] = tested on: DLD-1
[8] = tested on: IGROV-1
[9] = tested on: SNB-75
[10] = tested on: M19-MEL
[11] = tested on: HCC 2998
[12] = tested on: SW-620
[13] = tested on: NCI-H460
[14] = tested on: SF-295
[15] = tested on: CAKI-1
[16] = tested on: RXF 393
[17] = tested on: MDA-MB-231
[18] = tested on: T47D
[19] = tested on: MDA-MB-435
[20] = tested on: DU-145

Row | SMILES | GI50 [1] | GI50 [2] | GI50 [3] | GI50 [4] | GI50 [5] | GI50 [6] | GI50 [7] | GI50 [8] | GI50 [9] | GI50 [10] | GI50 [11] | GI50 [12] | GI50 [13] | GI50 [14] | GI50 [15] | GI50 [16] | GI50 [17] | GI50 [18] | GI50 [19] | GI50 [20]
1 | COc1ccc(NC(=O)C(=O)C(C(=O)c2ccccc2)C2OC(=O)c3ccccc32)c([N+](=O)[O-])c1 (configuration not stated) | > 100 µM (inactive) | > 100 µM (inactive) | > 100 µM (inactive) | > 100 µM (inactive) | > 100 µM (inactive) | > 100 µM (inactive) | > 100 µM (inactive) | > 100 µM (inactive) | > 100 µM (inactive) | > 100 µM (inactive) | > 100 µM (inactive) | > 100 µM (inactive) | > 100 µM (inactive) | > 100 µM (inactive) | > 100 µM (inactive) | > 100 µM (inactive) |  |  |  | 
2 | CC(C)(C)C(=O)C1CC(=O)c2ccccc2C1=O (configuration not stated) | 33.4 µM (inactive) | 21.8 µM (inactive) | 39.3 µM (inactive) | 25.2 µM (inactive) | 35.2 µM (inactive) | 20.7 µM (inactive) | 30.4 µM (inactive) | 33.7 µM (inactive) | 5.98 µM (inactive) | 32.9 µM (inactive) | 23.4 µM (inactive) | 32.4 µM (inactive) | 29.7 µM (inactive) | 36.2 µM (inactive) | 39.6 µM (inactive) | 22.2 µM (inactive) |  |  |  | 
3 | CC1=C(C(=O)Nc2cccc(Cl)c2)C(c2ccccc2O)C(C(=O)Nc2cccc(Cl)c2)=C(C)N1 | 22.3 µM (inactive) | 17.7 µM (inactive) | 17.4 µM (inactive) | 19.3 µM (inactive) | 17.7 µM (inactive) | 21 µM (inactive) | 18.4 µM (inactive) | 23.9 µM (inactive) | 14.9 µM (inactive) | 19.4 µM (inactive) | 18.9 µM (inactive) | 18.6 µM (inactive) | 21.6 µM (inactive) | 22.1 µM (inactive) | 22 µM (inactive) | 17.2 µM (inactive) |  |  |  | 
4 | CCOc1ccc(NC(=O)/C(CC(=O)c2c[n+]([O-])c3ccccc3[n+]2[O-])=N\OCCCc2ccccc2)cc1 | 42.2 µM (inactive) | > 100 µM (inactive) | > 100 µM (inactive) | > 100 µM (inactive) | 44.9 µM (inactive) | > 100 µM (inactive) | > 100 µM (inactive) | > 100 µM (inactive) | > 100 µM (inactive) | > 100 µM (inactive) | > 100 µM (inactive) | > 100 µM (inactive) | > 100 µM (inactive) | > 100 µM (inactive) | > 100 µM (inactive) | > 100 µM (inactive) |  |  |  | 
5 | Cc1c2cc[n+](CCN3CCCCC3)cc2c(C)c2c1[nH]c1ccc(O)cc12 | 1.11 µM (active) | 1.4 µM (inactive) | 9.27 µM (inactive) | 2.32 µM (inactive) |  | 1.69 µM (inactive) | 4.6 µM (inactive) | 2.89 µM (inactive) | 0.647 µM (active) | 0.982 µM (active) | 3.12 µM (inactive) | 3.19 µM (inactive) | 0.418 µM (active) | 1.47 µM (inactive) | 5.48 µM (inactive) | 5.2 µM (inactive) | 9.93 µM (inactive) | 2.82 µM (inactive) | 10.2 µM (inactive) | 1.89 µM (inactive)
6 | O=c1cccccc1NCCCCCCCCCNc1cccccc1=O | 5.94 µM (inactive) | 14.1 µM (inactive) | 10.9 µM (inactive) | 15.1 µM (inactive) | 15.7 µM (inactive) | 4.06 µM (inactive) | 10.8 µM (inactive) | 19 µM (inactive) | 17.9 µM (inactive) | 15.2 µM (inactive) | 13.3 µM (inactive) | 18.6 µM (inactive) | 9.51 µM (inactive) | 9.64 µM (inactive) | 13.3 µM (inactive) | 22.5 µM (inactive) |  |  |  | 
7 | COc1cc2ccc3c4ccccc4cnc3c2cc1OC | > 100 µM (inactive) | > 100 µM (inactive) | > 100 µM (inactive) | > 100 µM (inactive) | > 100 µM (inactive) | > 100 µM (inactive) | > 100 µM (inactive) | > 100 µM (inactive) | > 100 µM (inactive) | > 100 µM (inactive) | > 100 µM (inactive) | > 100 µM (inactive) | > 100 µM (inactive) | > 100 µM (inactive) | > 100 µM (inactive) | > 100 µM (inactive) |  |  |  | 
8 | CN(Cc1cnc2nc(N)nc(N)c2n1)c1ccc(C(=O)NC(CCC(=O)O)C(=O)O)c2ccccc12 (configuration not stated) | 0.000843 µM (active) | 0.00536 µM (active) | 0.00869 µM (active) | < 0.0185 µM (active) | < 0.1 µM (active) | 0.000435 µM (active) | 0.01 µM (active) | 0.0137 µM (active) | 0.0693 µM (active) | 0.01 µM (active) | 0.00145 µM (active) | 0.00137 µM (active) | 0.0011 µM (active) | 0.00604 µM (active) | 0.00489 µM (active) | < 0.1 µM (active) | < 0.1 µM (active) | 0.204 µM (active) | 0.00247 µM (active) | 0.00938 µM (active)
9 | COc1cccc2[s+]snc12 | > 10 µM (inactive) | 34.1 µM (inactive) | > 100 µM (inactive) | 61.7 µM (inactive) | > 100 µM (inactive) | 23.9 µM (inactive) | 35.6 µM (inactive) | > 100 µM (inactive) | 69.3 µM (inactive) | 22.8 µM (inactive) | > 100 µM (inactive) | 29.4 µM (inactive) | 68.4 µM (inactive) | 46.3 µM (inactive) | 66.1 µM (inactive) | 67 µM (inactive) |  |  |  | 
10 | NN1C(=O)C(CCO)S/C1=N/N=C1/SC(CCO)C(=O)N1N (configuration not stated) | > 100 µM (inactive) | > 100 µM (inactive) | > 100 µM (inactive) | > 100 µM (inactive) | > 100 µM (inactive) | > 100 µM (inactive) | > 100 µM (inactive) | > 100 µM (inactive) | > 100 µM (inactive) | > 100 µM (inactive) | > 100 µM (inactive) | > 100 µM (inactive) | > 100 µM (inactive) | > 100 µM (inactive) | > 100 µM (inactive) | > 100 µM (inactive) |  |  |  | 

From ChEMBL document CHEMBL1201862, “PubChem BioAssay data set” (2004)
